# Key:
# [1] = test system: Pr. morganii A-15153; experiment: MIC, tube dilution, Proteus morganii A15153; type: cell-based; details: Proteus morganii A15153; overnight 37° C.
# Excerpt: (§1) Representative compounds of the present invention were subjected to in vitro antibiotic screening against a variety of microorganisms.
# [2] = test system: Str. pyogenes A-9604; experiment: MIC, tube dilution, Streptococcus pyogenes A9604; type: cell-based; details: Str. pyogenes A9604; overnight 37° C., Nutrient Broth
# Excerpt: as §1
# [3] = test system: Ent. cloacae A-9659; experiment: MIC, tube dilution, Enterobacter cloacae A9659; type: cell-based; details: Enterobacter cloacae A9659; overnight 37° C.
# Excerpt: as §1
# [4] = test system: E. coli A15119; experiment: In vivo protection of mice, lethal infection with E. coli A15119; details: Escherichia coli, IM, 2 treatments, 7.8 × 10^5 organisms, read-out: PD50
# Experimental: (§2) Representative compounds of the present invention were also tested in vivo in mice and their PD50 (dose of compound in mg/kg required to protect 50% of the treated mice against an otherwise lethal infection of a micro-organism) values determined with respect to the test organisms shown below.
# [5] = test system: Ent. cloacae A-9656; experiment: MIC, tube dilution, Enterobacter cloacae A9656; type: cell-based; details: Enterobacter cloacae A9656; overnight 37° C.
# Excerpt: as §1
# [6] = test system: Staph. aureus (Meth-Res) A-15097; experiment: MIC, tube dilution, Staphylococcus aureus A15097 (Meth-Res); type: cell-based; details: Staphylococcus aureus, Staph. aureus A15097 (Meth-Res); overnight 37° C.; read-out: Minimum Inhibitory Concentration (M.I.C.)
# Excerpt: as §1
# [7] = test system: Str. faecalis A-20688; experiment: MIC, tube dilution, Streptococcus faecalis A20688; type: cell-based; details: Str. faecalis A20688; overnight 37° C.
# Excerpt: as §1
# [8] = test system: E. coli A-20341-1; experiment: MIC, tube dilution, Escherichia coli A20341-1; type: cell-based; details: Escherichia coli, A203411, E. coli A20341-1; overnight 37° C.; read-out: Minimum Inhibitory Concentration (M.I.C.)
# Excerpt: as §1
# [9] = test system: S. aureus A9537; experiment: In vivo protection of mice, lethal infection with S. aureus A9537; details: IM, 2 treatments, 9.1 × 10^5 organisms; listed as Ex. 98 (isomer A)
# Experimental: as §2
# [10] = test system: Ser. marcescens A-20019; experiment: MIC, tube dilution, Serratia marcescens A20019; type: cell-based; details: Serratia marcescens A20019; overnight 37° C.
# Excerpt: as §1
# [11] = test system: Staph. aureus (Pen-Res) A-9606; experiment: MIC, tube dilution, Staphylococcus aureus A9606 (Pen-Res); type: cell-based; details: Staphylococcus aureus, Staph. aureus A9606 (Pen-Res); overnight 37° C.; read-out: Minimum Inhibitory Concentration (M.I.C.)
# Excerpt: as §1
# [12] = test system: Klebsiella species A20468; experiment: MIC, tube dilution, Klebsiella species A20468; type: cell-based; details: Klebsiella species (K. pneumoniae) A20468; overnight 37° C.; read-out: Minimum Inhibitory Concentration (M.I.C.)
# Excerpt: as §1
# [13] = test system: Pr. mirabilis A-9900; experiment: MIC, tube dilution, Proteus mirabilis A9900; type: cell-based; details: Proteus mirabilis A9900; overnight 37° C.
# Excerpt: as §1
# [14] = test system: K. pneumoniae A-15130; experiment: MIC, tube dilution, Klebsiella pneumoniae A15130; type: cell-based; details: Klebsiella pneumoniae, A15130, K. pneumoniae A15130; overnight 37° C.; read-out: Minimum Inhibitory Concentration (M.I.C.)
# Excerpt: as §1
# [15] = test system: Staph. aureus A-9537; experiment: MIC, tube dilution, Staphylococcus aureus A9537; type: cell-based; details: Staph. aureus A9537; overnight 37° C., Nutrient Broth
# Excerpt: as §1
# [16] = test system: Ps. aeruginosa A-21213; experiment: MIC, tube dilution, Pseudomonas aeruginosa A21213; type: cell-based; details: Pseudomonas aeruginosa, A21213, Pseudomonas aeruginosa A21213; overnight 37° C.; read-out: Minimum Inhibitory Concentration (M.I.C.)
# Excerpt: as §1
# [17] = test system: Staph. aureus A-9537 and 50% serum; experiment: MIC, tube dilution, Staph. aureus A9537 + 50% serum; type: cell-based, Staphylococcus aureus; details: overnight 37° C.
# Excerpt: as §1
# [18] = test system: Str. pneumoniae A-9585; experiment: MIC, tube dilution, Streptococcus pneumoniae A9585; type: cell-based; details: Str. pneumoniae A9585; overnight 37° C., Nutrient Broth
# Excerpt: as §1
# [19] = test system: Proteus vulgaris A21559; experiment: MIC, tube dilution, Proteus vulgaris A21559; type: cell-based; details: Proteus vulgaris A21559; overnight 37° C.
# Excerpt: as §1
# [20] = test system: Ps. aeruginosa A-9843A; experiment: MIC, tube dilution, Pseudomonas aeruginosa A9843A; type: cell-based; details: Pseudomonas aeruginosa, A9843A, read-out: Minimum Inhibitory Concentration (M.I.C.), Pseudomonas aeruginosa A9843A; overnight 37° C.
# Excerpt: as §1
# [21] = test system: E. coli A-15119; experiment: MIC, tube dilution, Escherichia coli A15119; type: cell-based; details: Escherichia coli, A15119, E. coli A15119; overnight 37° C.; read-out: Minimum Inhibitory Concentration (M.I.C.)
# Excerpt: as §1
# [22] = test system: Proteus rettgeri A21203; experiment: MIC, tube dilution, Proteus rettgeri A21203; type: cell-based; details: Proteus rettgeri A21203; overnight 37° C.
# Excerpt: as §1
structure (smiles),measurement,setting,value
"NC1CCC(C2=C(C(=O)O)N3C(=O)C[C@H]3S2)C1 (single isomer, unassigned) [98 isomer A, 2-(3-Aminocyclopentyl)-penem-3-carboxylic acid]",Minimum Inhibitory Concentration (M.I.C.),[1],4 µg/mL
same,Minimum Inhibitory Concentration (M.I.C.),[2],.004 µg/mL
same,Minimum Inhibitory Concentration (M.I.C.),[3],4 µg/mL
same,ED50,[4],17.4 mg/kg
same,Minimum Inhibitory Concentration (M.I.C.),[5],2 µg/mL
same,MIC,[6],> 63 µg/mL
same,Minimum Inhibitory Concentration (M.I.C.),[7],4 µg/mL
same,MIC,[8],16 µg/mL
same,PD50,[9],0.04 mg/kg/treatment
same,Minimum Inhibitory Concentration (M.I.C.),[10],2 µg/mL
same,MIC,[11],32 µg/mL
same,MIC,[12],> 63 µg/mL
same,Minimum Inhibitory Concentration (M.I.C.),[13],1 µg/mL
same,MIC,[14],4 µg/mL
same,Minimum Inhibitory Concentration (M.I.C.),[15],.03 µg/mL
same,MIC,[16],> 63 µg/mL
same,Minimum Inhibitory Concentration (M.I.C.),[17],.13 µg/mL
same,Minimum Inhibitory Concentration (M.I.C.),[18],.004 µg/mL
same,Minimum Inhibitory Concentration (M.I.C.),[19],2 µg/mL
same,MIC,[20],> 63 µg/mL
same,MIC,[21],1 µg/mL
same,Minimum Inhibitory Concentration (M.I.C.),[22],1 µg/mL
